Series [1] can be described thus: Chemical stability in isotonic saline and phosphate buffer (Example A). Type of series: physicochemical. The note with it: 100 μM; phosphate buffer pH 7.4; 1 hour; room temperature. The procedure: Methods: Aliquots of a 10 μg/mL solution of 30.1 in isotonic saline and in 100 mM potassium phosphate buffers at pH 3, 7, and 9 were sampled after 1, 2, 5, and 7 days of incubation at room temperature and analyzed by HPLC. A Beckman Ultrasphere C8 column (4.6×150 mm) was employed and eluted with a gradient from 0.1% v/v trifluoroacetic acid to 80% methanol at a flow rate of 1.0 mL/min. Detection was at 254 nm. Using these conditions, the four isomers of 30.1 were readily separated and quantified. 1.3 was incubated at 100 μM in phosphate buffer at pH 7.4 and analyzed by HPLC as described in Example I following 1 hour of incubation at room temperature.
Thus, prodrugs of the invention are stable under a broad pH range.

Series [2] is described as follows: Delivery of parent compound to liver after intraperitoneal 1.3 (Example U). Type of series: in vivo, rat. The note with it: 1.3 50 mg/kg i.p. The procedure:
Methods: 1.3 was dissolved in DMSO and administered intraperitoneally to fasted rats at a dose of 50 mg/kg. At various time points following drug administration, animals were anesthetized with halothane. The peritoneal cavity was then opened and a blood sample was obtained from the abdominal vena cava and the liver freeze-clamped and excised. Blood and liver samples were processed as described in Example P and analyzed for 6-Amino-9-neopentyl-8-(2-phosphonofuranyl)purine content as described in Example I.
Results: 6-Amino-9-neopentyl-8-(2-phosphonofuranyl)purine was detected both in plasma and liver following 1.3 administration. Peak levels measured at the earliest time point of 1 hour were 5.8 μM in plasma and 5 nmoles/g tissue in liver. 6-Amino-9-neopentyl-8-(2-phosphonofuranyl)purine persisted in plasma and liver for 4 hours (the last time point measured).

A short description of series [3]: Stability in plasma (Example C). The note with it: 37° C.; 5-8 hours; HPLC.
Description: Methods: Compounds were incubated in plasma at 37° C., and aliqouts removed at appropriate time points over the course of 5-8 hours. The aliquots were extracted with 1.5 volumes of methanol and clarified by centrifugation. Supernatants were then evaporated to dryness and the residues reconstituted with 100 μL of isoionic saline and then analyzed by reverse phase HPLC.
The subject of series [4] is glucose production (gluconeogenesis) in isolated rat hepatocytes. Kind of series: Inhibition of glucose production in rat hepatocytes (Example J). Type of series: cell-based. The note with it: lactate 10 mM / pyruvate 1 mM, 1 hour. As to the method: Select prodrugs of FBPase inhibitors were tested for inhibition of glucose production in isolated rat hepatocytes.
After a 10 minute equilibration period, lactate and pyruvate were added to 10 mM and 1 mM concentrations, respectively. Addition of gluconeogenic substrates was immediately followed by that of appropriate concentrations of test compound. After 1 hour, an aliquot (0.25 ml) was removed, transferred to an Eppendorf tube and centrifuged. The supernatant (50 μl) was then assayed for glucose content using a Glucose Oxidase kit (Sigma Chemical Co.) as per the manufacturer's instructions.
Results: The following table depicts the inhibitory effect on gluconeogenesis for several prodrugs prepared in the Examples.

Series [5] can be described thus: Oral bioavailability by urinary excretion method (Example M). Type of series: in vivo. The following applies: oral gavage 20 or 40 mg/kg parent equivalents; 24 h urine vs i.v. parent ~10 mg/kg; rat. The procedure: The oral bioavailability of prodrugs of a variety of phosphonic acid FBPase inhibitors was estimated by a urinary excretion method in rat.
Prodrugs of FBPase inhibitors were dissolved in 10% ethanol/90% polyethylene glycol (mw 400) and administered by oral gavage at doses of 20 or 40 mg/kg parent compound equivalents to 6-hour fasted, Sprague Dawley rats (220-240 g). The rats were subsequently placed in metabolic cages and urine was collected for 24 hours. The quantity of parent compound excreted into urine was determined by HPLC analysis. An ODS column eluted with a gradient from potassium phosphate buffer, pH 5.5 to acetonitrile was employed for these measurements. Detection was at 310-325 nm. […] Parent compounds were typically dissolved in dimethyl sulfoxide, and administered via the tail vein in animals that were briefly anesthetized with halothane.
Results for the FBPase inhibitor prodrugs were as follows

Series [6] has as its system isolated rat hepatocytes. Nature of the series: Activation in isolated rat hepatocytes (Example I). The note with it: 100 μM prodrug; fed rat hepatocytes.
Description: Methods: Hepatocytes were prepared from fed Sprague-Dawley rats (250-300 g) according to the procedure of Berry and Friend (Berry, M. N., Friend, D. S. J. Cell Biol. 43, 506-520 (1969)) as modified by Groen (Groen, A. K. et al. Eur J. Biochem 122, 87-93 (1982)). Hepatocytes (75 mg wet weight/ml) were incubated in 1 ml Krebs-bicarbonate buffer containing 10 mM glucose, and 1 mg/ml BSA. […] Prodrugs were dissolved in DMSO to yield 10 mM stock solutions, and then diluted into the cell suspension to yield a final concentration of 100 μM. At appropriate time points over the course of one hour, aliquots of the cell suspension were removed and spun through a silicon/mineral oil layer into 10% perchloric acid. The cell extracts in the acid layers were neutralized, and the intracellular prodrug metabolite content analyzed by reverse phase HPLC. An ODS column was used for analysis. It was eluted with a gradient from 10 mM sodium phosphate, pH 5.5 to 75% acetonitrile. Detection was at 310 nm. Peaks on the chromatograms were identified by comparison to the retention times and spectra of standards of prodrug and parent compound.
The nature of series [7]: Hepatic PMEA-diphosphate and plasma PMEA after intravenous administration (Example P). Type of series: in vivo, rat. The following applies: 10 mg/kg PMEA equivalents i.v.; fasted rats. The procedure:
Methods. […] At appropriate time points, blood and liver samples were obtained and processed as described in Example O. PMEA-diphosphate in liver and PMEA in plasma were analyzed by HPLC as described for araATP and ara-hypoxanthine, respectively, in Example O.

Series [8] in a line: Renal excretion of PMEA after intravenous administration (Example Q). The note with it: i.v.; for Renal excretion of PMEA, of the administered dose: rats, 24 hour urine.
Description: Rats were subsequently caged in metabolic cages and urine collected over a 24 hour period. Urine samples were extracted with 70% methanol/2% acetic acid, vortexed and clarified by centrifugation. Supernatants were analyzed for PMEA content by reverse phase HPLC. A Beckman Ultrasphere ODS (4.6×150 mm) column was used with a gradient from 20 mM potassium phosphate pH 6.2 to 50% acetonitrile.
The subject of series [9] is human liver microsomes, p450 isozymes (CYP3A4, CYP1A2, CYP2C9). Nature of the series: Identification of the p450 isozyme involved in the activation, with isozyme inhibitors (Example F). The following applies: 0-100 μM p450 isozyme inhibitor, 250 μM 30.1.
The conditions of series [10]: in vivo; cited from earlier work.
The test system of series [11] is isolated rat hepatocytes. Kind of series: Generation of PMEApp in isolated rat hepatocytes (Example V). Type of series: cell-based. The note with it: Dose 250 μM; 4 h; triplicate. The procedure: Methods: Hepatocytes were prepared from fed rats and incubated as described in Example I. Test compounds were prepared in DMSO and-diluted to 250 μM in the cell suspensions. Reactions were performed in triplicate. After 4 hours of incubation, aliquots of the suspension were removed and processed as described in Example I. Quantitation of PMEApp was performed by anion exchange HPLC also as described in Example I.

These results are taken from US7351399B2, “Prodrugs for phosphorus-containing compounds” (Metabasis Therapeutics, Inc., priority 1998, dated 2008).

“Also recorded” adds a separate entry of the source.

In the case of `CC(C)(C)Cn1c(-c2ccc(P3(=O)OC4CC(O)CC(C4)O3)o2)nc2c(N)ncnc21` (single isomer, unassigned) [Compound 1.3, 6-Amino-8-(5′-hydroxyl-1′,3′ cyclohexyl)phosphonofuranyl-9-neopentyl purine], the “stability in phosphate buffer” value in series [1] is given as “fully stable”. For the same compound, in series [2] (fasted rats, 1 hour), the “peak level of parent 6-Amino-9-neopentyl-8-(2-phosphonofuranyl)purine in liver” value is given as 5 nmoles/g tissue and the “peak level of parent 6-Amino-9-neopentyl-8-(2-phosphonofuranyl)purine in plasma” value stood at 5.8 µM. For the same compound, the “persistence of parent compound in plasma and liver” value in series [2] (last time point measured) was determined as 4 h. Moreover, the “metabolism / degradation in fresh rat plasma” value (shortened to “metabolism / degradation”) in [3] was “no evidence of metabolism”.

Consider `Nc1ncnc2c1nc(-c1ccc(P3(=O)OC4CC(O)CC(C4)O3)o1)n2CCc1ccccc1` (centres unmarked) [Compound 1.1, 6-Amino-8-(5′-hydroxyl-1′,3′-cyclohexyl)phosphonofuranyl-9-phenethyl purine], for which, in series [3], the “metabolism / degradation” value is given as “not degraded; also recorded: no evidence of metabolism”.

Turning to `CC(C)(C)Cn1c(-c2ccc(P3(=O)OC4CC(O)CC(C4)O3)o2)nc2c(N)ncnc21` (centres unmarked) [Compound 1.2, 6-Amino-8-(5′-hydroxyl-1′,3′-cyclohexyl)phosphonofuranyl-9-neopentyl purine], the “metabolism / degradation” value in series [3] was “not degraded”.

Take `Cc1c(Cl)cc2c(nc(-c3ccc(P4(=O)OC5CC(O)CC(C5)O4)o3)n2CC2CC2)c1C` (centres unmarked) [Compound 1.4, 6-Chloro-4,5-dimethyl-1-cyclopropylmethyl-2-[1′-hydroxy-3′,5′-cyclohexylphosphono-5-furanyl]benzimidazole]: in series [4], the “% inhibition @ 100 μM” value is on record as 36%.

`CC(=O)N[C@@H]1COP(=O)(c2ccc(-c3nc4ccc(Cl)cc4n3CC(C)C)o2)O[C@H]1c1ccc([N+](=O)[O-])cc1` (stereo partly drawn) [Compound 2.4, 6-Chloro-1-isobutyl-2-{5-[1S-(4-nitrophenyl)-2R-acetylamino-propan-1,3-yl]phosphono-2-furanyl}benzimidazole]: the “% OBAV Prodrug” value in series [5] was found to be 8.7%. In addition, in series [4], the “% inhibition @ 100 μM” value was 40%.

For `CC(C)Cn1c(-c2ccc(P3(=O)OCCC(c4ccccn4)O3)o2)nc2ccc(Cl)cc21` (centres unmarked) [Compound 4.2, 6-Chloro-1-isobutyl-2-{5-[1′-(2-pyridyl)-propan-1′,3′-yl]phosphono-2-furanyl}benzimidazole], in series [5], the “% OBAV Prodrug” value was 8.5%. For the same compound, in series [4], the “% inhibition @ 100 μM” value was 68%.

With `CC(C)Cn1c(-c2ccc(P3(=O)OCCC(c4ccncc4)O3)o2)nc2ccc(Cl)cc21` (centres unmarked) [Compound 4.3, 6-Chloro-1-isobutyl-2-{5-[1′-(4-pyridyl)-propan-1′,3′-yl]phosphono-2-furanyl}benzimidazole], the “% OBAV Prodrug” value in series [5] is 11.6%. Besides, in series [4], the “% inhibition @ 100 μM” value is 55%.

Turning to `CC(C)Cn1c(-c2ccc(P3(=O)OCCC(c4ccc(F)cc4)O3)o2)nc2ccc(Cl)cc21` (centres unmarked) [Compound 5.2, 6-Chloro-1-isobutyl-2-{5-[1′-(4-fluorophenyl)-propan-1′,3′-yl]phosphono-2-furanyl}benzimidazole], the “% OBAV Prodrug” value in series [5] is 2.4%.

Take `COc1ccc(C2CCOP(=O)(c3ccc(-c4nc5ccc(Cl)cc5n4CC(C)C)o3)O2)cc1Br` (centres unmarked) [Compound 6.1, 6-Chloro-1-isobutyl-2-{5-[1′-(3-bromo-4-methoxyphenyl)-propan-1′,3′-yl]phosphono-2-furanyl}benzimidazole]: the “% inhibition @ 100 μM” value in series [4] was 11%.

What is called IC50 is the midpoint of a concentration-inhibition curve. Read a high IC50 as weaker potency in that assay. Consider `CC(=O)OCC1COP(=O)(c2ccc(-c3nc4ccc(Cl)cc4n3CC(C)C)o2)OC1` (centres unmarked) [Compound 7.2, 6-Chloro-1-isobutyl-2-{5-[2′-(acetoxymethyl)-propan-1′,3′-yl]phosphono-2-furanyl}benzimidazole], for which, in the series on isolated rat hepatocytes [6], the “peak intrahepatocyte levels of parent compound” value is listed as roughly 500 nmoles/g cells. Also, the “% OBAV Prodrug” value in [5] amounted to 12.5%. Further, inhibition in series [4] was half-maximal at 90 µM (IC50).

In the case of `COC(=O)OCC1COP(=O)(c2ccc(-c3nc4ccc(Cl)cc4n3CC(C)C)o2)OC1` (centres unmarked) [Compound 7.3, 6-Chloro-1-isobutyl-2-{5-[2′-(methoxycarbonytoxymethyl)-propan-1′,3′-yl]phosphono-2-furanyl}benzimidazole], the “% OBAV Prodrug” value in series [5] was found to be 14.1%. Also, the “% inhibition @ 100 μM” value in [4] is listed as 61%.

For `CCc1cc(F)c(N)c2nc(-c3ccc(P4(=O)OCC(COC(C)=O)CO4)o3)n(CC(C)C)c12` (centres unmarked) [Compound 7.4, 4-Amino-5-fluoro-7-ethyl-1-isobutyl-2-{5-[2′-(acetoxymethyl)-propan-1′,3′-yl]phosphono-2-furanyl}benzimidazole], the IC50 in series [4] turned out to be 25 µM.

As to `Nc1ncnc2c1ncn2CCOCP1(=O)OCCC(c2ccncc2)O1` (centres unmarked) [Compound 28.4, 9-[2-(1-(4-Pyridyl)-1,3-propylphosphonomethoxy)ethyl]adenine], in [7], the “PMEA-diphosphate levels in liver” value is “readily detectable levels; also recorded: high PMEA disphosphate levels”. Besides, in series [8], the “PMEA in the blood or urine” value is “no detectable PMEA”.

Regarding `CC(=O)N1CCN(c2ccc(OCC3COC(Cn4ccnc4)(c4ccc(Cl)cc4Cl)O3)cc2)CC1` (centres unmarked) [Ketoconazole], the “inhibition of the formation of ara-AMP from 30.1” value (from here on “inhibition … from 30.1”) in series [9] was “dose-dependent”.

On to `Nc1ncnc2c1ncn2[C@@H]1O[C@H](CO)[C@@H](O)[C@@H]1O` [araA, 9-b-D-arabinofuranosyladenine], for which the oral bioavailability result in series [10] is “low oral bioavailability”.

With `CC(C)(C)C(=O)OCOP(=O)(COCCn1cnc2c(N)ncnc21)OCOC(=O)C(C)(C)C` [bisPOM-PMEA, reference compound], the “PMEA-diphosphate levels in liver” value in [7] is “readily detectable levels”. The compound also returned a PMEApp with isolated rat hepatocytes [11] of 200 ± 33 nmol/g. Further, the “Renal excretion of PMEA, of the administered dose” value in series [8] is 54%; in series [8] (listed as bis POM prodrug of PMEA), “high levels of PMEA in the urine”.

For `Cc1nc2c([nH]1)c(=O)n(C)c(=O)n2Cc1ccco1` [furafylline], the “inhibition … from 30.1” value in series [9] is “no significant inhibition”.

Take `Nc1ccc(S(=O)(=O)Nc2ccnn2-c2ccccc2)cc1` [sulfaphenazole]: the “inhibition … from 30.1” value in [9] is “no significant inhibition”.
